Assay results as given in the OPERA property sets (Mansouri et al. 2018).

SMILES | log10 OH rate constant (cm³/molecule/s) (25.0 °C) | other results
C1C2C3C2C2C1C32 (centres undefined) | -11.7 | –
CCCCO[N+](=O)[O-] | -11.8 | –
CON=O | -12.7 | –
CCCCCCCCCCCC | -10.8 | –
O=[N+]([O-])C1=CCCCC1 | -10.4 | –
FC(F)(F)Br | < -16 | –
FC(F)(Br)C(F)(F)Br | – | log10 OH rate constant (cm³/molecule/s) (23.0 °C): < -15.9
FC(Cl)(Cl)Cl | < -15.3 | –
CCCl | -12.4 | –
FC(F)(F)C(F)(F)C(Cl)Cl | -13.6 | –
C=CC[N+](=O)[O-] | -10.9 | –
CCCCCCCCO | -10.8 | –
CC1(C)C2CC3C(C2)C31C | – | log10 OH rate constant (cm³/molecule/s) (23.0 °C): -11.5
CC#N | -13.6 | –
C | -14.2 | –
CCCCON=O | -11.6 | –
CC(C)(C)OO | -11.5 | –
CCOCC | -10.9 | –
C[C@@H]1CC[C@@H]2C[C@H]1C2(C)C | – | log10 OH rate constant (cm³/molecule/s) (23.0 °C): -10.9
FC(Cl)C(F)(F)C(F)(F)Cl (centres undefined) | – | log10 OH rate constant (cm³/molecule/s) (22.0 °C): -14.1
CCON=O | -12.2 | –
CC[N+](=O)[O-] | -12.8 | –
CCCCSCCCC | – | log10 OH rate constant (cm³/molecule/s) (22.0 °C): -10.4
C1=Cc2ccccc2C1 | – | log10 OH rate constant (cm³/molecule/s) (22.0 °C): -10.3
FC(F)(Br)Br | – | log10 OH rate constant (cm³/molecule/s) (24.0 °C): < -15.2
CSC | -11.3 | –
C=C[N+](=O)[O-] | -11.9 | –
FC(Br)(Br)Br | < -15 | –
COS(=O)(=O)OC | < -12.3 | –
